Assay results from patent US20050136491A1, “Method of site specific labeling of proteins and uses therefor” (SmithKline Beecham Corporation, priority 1999, published 2005).
Blank lines part the entries; values can stand above or below the compound they belong to. Square brackets hold non-standard residues; d marks the D form. Peptide text beside a SMILES is read from it. * marks the point of attachment. Tyr(3-NO2) = N[C@@H](Cc1ccc(O)c([N+](=O)[O-])c1)C(=O)O; Biotin = O=C1N[C@H]2[C@H](CS[C@H]2CCCCC(=O)*)N1

How the values were obtained:
[1] = target: T1, Factor XIIIa (Homo sapiens, UniProt P00488); test: Factor XIII(a)-mediated labeling of ACP-Peptide 1 C-terminal fusion (C-tagged ACP); format: biochemical; settings: for incorporation into ACP-Peptide 1 fusion: Mono Q ion exchange, 22 hr
T1 construct: purchased Enzyme Research Laboratories
T1 sequence (P00488 39-732 limits assumed): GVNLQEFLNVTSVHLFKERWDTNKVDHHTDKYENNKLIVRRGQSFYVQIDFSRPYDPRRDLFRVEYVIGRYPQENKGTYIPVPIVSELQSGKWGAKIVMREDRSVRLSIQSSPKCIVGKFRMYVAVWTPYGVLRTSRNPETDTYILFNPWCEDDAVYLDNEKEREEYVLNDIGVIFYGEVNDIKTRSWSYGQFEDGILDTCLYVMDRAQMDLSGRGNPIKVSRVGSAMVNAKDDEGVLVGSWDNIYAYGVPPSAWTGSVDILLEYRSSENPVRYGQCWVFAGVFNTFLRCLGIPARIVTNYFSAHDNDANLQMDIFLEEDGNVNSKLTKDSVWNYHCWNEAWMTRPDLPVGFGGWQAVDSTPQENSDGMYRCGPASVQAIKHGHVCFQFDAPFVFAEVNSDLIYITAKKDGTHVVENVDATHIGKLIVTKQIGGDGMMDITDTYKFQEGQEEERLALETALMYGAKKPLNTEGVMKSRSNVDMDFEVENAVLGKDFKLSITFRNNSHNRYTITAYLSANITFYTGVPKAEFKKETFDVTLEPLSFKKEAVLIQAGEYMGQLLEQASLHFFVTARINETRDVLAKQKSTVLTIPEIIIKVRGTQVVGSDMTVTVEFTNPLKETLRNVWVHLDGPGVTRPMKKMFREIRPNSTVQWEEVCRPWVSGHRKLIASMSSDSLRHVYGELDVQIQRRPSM
Experimental: A 270 units/ml reaction of Factor XIII was activated by 42 units/ml immobilized thrombin in Buffer 1:40 mM Tris-HCl, pH 8.3, 0.15 M NaCl. Cadaverine derivatives (rhodamine green and biotin) were used at 0.5 mM for each labeling reaction. The labeling reaction also contained 6 mM of DTT and 5 mM CaCl2. 0.5 mg/ml tagged ACP was used in the labeling reactions, against a 0.5 mg/ml native ACP control sample. Incubations were carried out at room temperature. Aliquots were taken from the mixtures at different time points and 50 mM EDTA was used to stop the labeling reaction (Factor XIII being Ca^2+ dependent). NuPAGE Tris-Glycine gels (4-12%) [Novex] were used to analyze the labeling results. The rhodamine green cadaverine labeling gel was observed under UV translumination, while the biotin cadaverine labeled protein was analyzed by Western blotting/streptavidin-HRP detection. […] No label was incorporated into the native ACP control under the conditions described above.
The ACP-peptide 1 C-terminal fusion was labeled with biotin cadaverine (Molecular Probes) in a reaction mixture of 0.5 mg/ml ACP-Peptide 1 fusion, 1.5 mM biotin-cadaverine and 504 units/ml Factor XIIIa. The efficiency of incorporation was determined by competitive ELISA to be 56%.
Novel biotinylation reagents (i.e. labeling compounds) were tested in an attempt to increase the yield. To this end, two biotinylated dipeptides, Biotin-Trp-Lys-OH and Biotin-NitroTyr-Lys-OH, were evaluated in a reaction mixture of 0.5 mg/ml ACP-Peptide 1 fusion, 1.5 mM biotin-cadaverine and 504 units/ml Factor XIIIa. Incorporation of the Biotin-Trp-Lys-OH dipeptide was shown by Mono Q ion exchange to be >85% (FIG. 2), in comparison to a 55% incorporation of the Biotin-NitroTyr-Lys dipeptide (FIG. 1). […] provides the C-tagged ACP standard. The identity of the modified peak was confirmed by addition of unmodified ACP at the end of the reaction (FIG. 4).

[2] = target: T2, Factor XIII (Homo sapiens, UniProt P00488); test: Factor XIII-mediated labeling of N-terminal Peptide 1-ACP fusion (N-tagged ACP); format: biochemical; settings: analysed by N-terminal sequencing and mass mapping
T2 construct: purchased Enzyme Research Laboratories
T2 sequence (P00488 39-732 limits assumed): T1 sequence (P00488 39-732 limits assumed)

[3] = 0.5 mg/ml fusion, 504 units/ml Factor XIIIa

Compound: NCCCC[C@H](NC(=O)[C@H](Cc1ccc(O)c([N+](=O)[O-])c1)NC(=O)CCCC[C@@H]1SC[C@@H]2NC(=O)N[C@@H]21)C(=O)O [Biotin-NitroTyr-Lys, Biotin-NitroTyr-Lys-OH] (Biotin-[Tyr(3-NO2)]-Lys-OH)
- incorporation into ACP-Peptide 1 fusion [1, 3]: 55%

Compound: NCCCC[C@H](NC(=O)[C@H](Cc1c[nH]c2ccccc12)NC(=O)CCCC[C@@H]1SC[C@@H]2NC(=O)N[C@@H]21)C(=O)O [Biotin-Trp-Lys-OH] (Biotin-Trp-Lys-OH)
- incorporation into ACP-Peptide 1 fusion [1, 3]: > 85%

- labeling efficiency of N-terminal Peptide 1-ACP fusion [2]: greater than 90%
Compound: CN(C)c1cccc2c(S(=O)(=O)NCCCCCN)cccc12 [dansyl cadaverine]

Compound: biotin cadaverine
- efficiency of incorporation into ACP-Peptide 1 C-terminal fusion ([1]; competitive ELISA, 0.5 mg/ml fusion, 1.5 mM label, 504 units/ml Factor XIIIa): 56%

- efficiency of labeling of the ACP-Peptide 1 C-terminal fusion [1]: greater than 90%
- extent of labeling of C-tagged ACP ([1]; non-optimized reaction, estimated by high-resolution ion exchange): greater than 85%
Compound: rhodamine green cadaverine
